Assay results as given in US11674967B2, “Method of identifying potential inhibitors of APO TNFα trimers” (UCB BIOPHARMA SRL, priority 2015, dated 2023).

Columns and labels:
[1] = target: T1, TNFα (Homo sapiens, UniProt P01375); assay: Mass spectrometric analysis of compound binding to TNFα (soft ionisation)
Method: Mass spectrometry was typically performed using a Waters LCT-premier Time-of-Flight mass spectrometer or a Waters SynaptG2 Q-TOF mass spectrometer. Samples were introduced using an Advion Triversa Nanomate nanoflow infusion device which replaces the conventional spectrometer source, sample injection was via an “A” series chip with […] nozzle size at a nominal flow rate of 100 nl/min. Further modifications to the Waters LCT-premier Time-of-Flight mass spectrometer include a customised source cooling device allowing precise control of the source temperature and a commercial pressure regulation device giving precise control over the vacuum conditions in the source region. Together these modifications help retain the TNFα trimer in a native, folded conformation and facilitate the detection of complexes formed with test compounds of weak affinities.
Ions were generated using standard positive ion electrospray conditions resulting in multiple charging of TNFα.
Mass spectrometry is very sensitive to the buffer salts present in the protein sample. Typical buffer salts such as potassium or sodium phosphates have a severely detrimental affect on ionisation. Accordingly protein samples were pre-treated to remove these salts using a Zeba desalt spin column, the protein being exchanged into a mass spectrometry compatible buffer system, typically 50 mM Ammonium Acetate at pH 6.8.
Typically the test compounds were presented as 10 mM DMSO stock solutions such that when they are incubated with TNFα in solution the final DMSO concentration is 5%. […] This is evidenced by the changes in the number of charges acquired by the protein under the various conditions described.
Test compounds were prepared as 10 mM solutions in dimethylsulphoxide (DMSO). Therefore, it was necessary to establish the effect of DMSO on the native TNFα trimer in the absence of a test compound. […]
Incubation of a library of test compounds, including the compound of formula (3) with TNFα was monitored by mass spectrometry under soft ionization conditions. […]
Target sequence in this assay (P01375 77-233 limits assumed): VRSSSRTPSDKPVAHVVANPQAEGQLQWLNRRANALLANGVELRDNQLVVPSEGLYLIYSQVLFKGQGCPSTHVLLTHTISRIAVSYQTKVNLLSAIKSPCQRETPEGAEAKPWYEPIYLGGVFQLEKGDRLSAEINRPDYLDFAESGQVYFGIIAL

[2] = tested on: hTNFα-induced neutrophil recruitment; assay: Neutrophil recruitment in mice, compound given orally before hTNFα i.p.; type: in vivo, Balb/c mice
Method: In a further experiment, mice were treated with hTNFα (0.3 μg/ml) and the compound of formula (3) was administered orally (p.o.).
The compound of formula (3) was made into a suspension in 1% methylcellulose vehicle using a covaris machine.
An anti-human TNFα monoclonal antibody (anti-hTNFα, UCB) was also utilised as a positive control in this study.
Ten male Balb/c mice were used per group except in the group that received anti-hTNFα for which 4 mice were used.
Mice received 100 μL of either vehicle (1% methylcellulose) or compound of formula (3) at 30 mg/kg or 100 mg/kg p.o. 30 minutes (t=−30) or anti-hTNFα at 10 mg/kg i.p. 5 minutes (t=−5) prior to being injected with human TNFα.
All mice were killed by cervical dislocation two hours post-injection of hTNFα (t=2 h) and the peritoneal cavity was lavaged and neutrophil numbers measured as described above.

[3] = target: T1, TNFα; assay: LC-MS of size exclusion fractions of TNFα, TNF-R and compound; type: binding; parameters: purchased R&D Systems; details: either order of addition
Method: Fractions from size exclusion chromatographic separation of mixtures of TNFα, TNF-R and the compound of formula (3) were analysed by liquid chromatography-mass spectrometry (LC-MS). Two samples were prepared for size exclusion chromatography.
Target sequence in this assay (P01375 77-233 limits assumed): as above
Target sequence in this assay (P19438 30-211 partner limits assumed): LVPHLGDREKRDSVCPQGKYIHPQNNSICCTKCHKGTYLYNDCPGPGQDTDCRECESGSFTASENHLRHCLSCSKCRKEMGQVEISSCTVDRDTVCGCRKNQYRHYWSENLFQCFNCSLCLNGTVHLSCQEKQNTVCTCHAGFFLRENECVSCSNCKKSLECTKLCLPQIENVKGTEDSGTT

[4] = tested on: TNFR2; assay: Membrane TNF - TNFR2 signalling (NS0-mTNF cells with expanded primary human T cells); type: cell-based; details: compound bound to membrane TNFα on NS0 cells
Method: A murine B cell line (NS0-mTNF) stably expressing non-cleavable human membrane TNF due to a mutation at the TACE cleavage site was used to trigger TNFR2 signalling in PHA-L and IL-2 expanded primary human T cells. […] TNFR1 was also present on these cells but was blocked using a UCB mouse anti-human-TNFR1 antibody 5R16.
NS0-mTNF cells were cultured with 10 μM NCEs for 1 hour to allow binding of Compounds to membrane TNF. T cells were then mixed with the NS0-mTNF cells and following a brief spin to allow cell-cell contact, cells were incubated for 5 min and then lysed in lysis buffer. […] First TRAF-2 recruitment to the TNFR2 receptor was measured in Co-immunoprecipitation experiments as a measure of membrane proximal signalling. After lysis of cells TNFR2 was isolated from the lysate using polyclonal goat anti-human TNFR2 antibodies followed by protein G sepharose bead purification. TNFR2 associated TRAF-2 was then measured in immunoblots after running the purified TNFR2 preparation on a SDS-PAGE. In addition, the whole cell lysate was also sampled for the presence of pNFκB using SDS-PAGE and pNFκB specific immunoblots.
• PBMC from 3 three different donors were cultured in 6 well plates with 10×10^6 cells per well in 5 ml of RPMI1640 supplemented with 10% FCS, 1% human serum, HEPES GlutaMAX, 25 U/ml hIL-2 (Roche) and 2 μg/ml PHA-L (Sigma) to grow out T cells • after 3 days cells were resuspended and cultured in 75 cm^2 flasks with the same media as above, but lacking the PHA-L • growth of culture was monitored and media was changed every 3 days.
This is a 2× solution • prepare 500 μl of 10×10^6 NS0-wt cells • After 1 h add 500 μl human T cells (50×10^6 cells/test) in human media at 37° C. T cells were preincubated for 15 min @37° C. with 50 μg/ml 5R16 anti-TNFR1 Fab-PEG to block signalling via TNFR1 prior adding to the NS0 cells. […]

Structure (SMILES)	effect on trimeric TNFα (charge state envelope) ([1]; 5% v/v DMSO)	binding to the monomeric form of TNFα ([1]; soft ionization)	stoichiometry of binding ([1]; soft ionization)	reduction of TNFα stimulated neutrophil recruitment into the peritoneal cavity ([2]; 30 mg/kg p.o.)	reduction of TNFα stimulated neutrophil recruitment into the peritoneal cavity ([2]; 100 mg/kg p.o.)	binding to TNFα in the presence of TNF-R [3]	TNFR2 specific membrane proximal (TRAF-2 recruitment to TNFR2) and downstream (pNFκB) signalling [4]
Cc1ccc(C)c(Cn2c(C(O)c3ccncc3)nc3ccccc32)c1 (stereo not shown) [Compound 3]	stabilization of the trimeric TNFα complex	not observed to bind	one molecule of the compound of formula (3) per TNFα trimer	49%	79%	binds to TNFα even in the presence of TNF-R	–
Cc1ccc(C)c(Cn2c(C(O)c3ccncc3)nc3ccc(-c4cnn(C)c4)cc32)c1 (stereo not shown) [Compound 15]	–	–	–	–	–	–	does not impair
